Literature values in article PMC8513935.

Experiments:
[1] = derived by the authors as gas->solvent minus gas->water (a hypothetical dry solvent; the ESI), not a two-phase measurement
[2] = experimental, compiled by the authors from the literature (the ESI cites the sources)
[3] = log P octanol/water from commercial databases, averaged (the ESI); conditions: Octanol (wet), 25 C

| Structure (SMILES) | log K of transfer, water to solvent ([1]; CCl4, 25 C) [log10 K] | log K of transfer, water to solvent ([1]; Hexadecane, 25 C) [log10 K] | log K of transfer, water to solvent ([1]; Octan-1-ol(dry), 25 C) [log10 K] | log K of transfer, gas to solvent ([2]; CCl4, 25 C) [log10 K] | log K of transfer, gas to solvent ([2]; Hexadecane, 25 C) [log10 K] | log K of transfer, gas to solvent ([2]; Octan-1-ol, 25 C) [log10 K] | log K of transfer, gas to solvent ([2]; Water, 25 C) [log10 K] | log K of transfer, water to solvent [3] [log10 K] | log K of transfer, water to solvent ([1]; Methanol, 25 C) [log10 K] | log K of transfer, gas to solvent ([2]; Methanol, 25 C) [log10 K] | log K of transfer, water to solvent ([1]; Hexane, 25 C) [log10 K] | log K of transfer, water to solvent ([1]; Propan-2-ol, 25 C) [log10 K] | log K of transfer, gas to solvent ([2]; Hexane, 25 C) [log10 K] | log K of transfer, gas to solvent ([2]; Propan-2-ol, 25 C) [log10 K] | also measured |
| --- | --- | --- | --- | --- | --- | --- | --- | --- | --- | --- | --- | --- | --- | --- | --- |
| Cc1ccc(C)cc1 | 3.61 | 3.25 | 3.2 | 4.2 | 3.84 | 3.79 | 0.59 | 3.15 | – | – | – | – | – | – | log K of transfer, water to solvent ([1]; 1,2-Dichloroethane, 25 C): 3.78 log10 K; log K of transfer, water to solvent ([1]; 2-Methylpropan-1-ol, 25 C): 3.03 log10 K; log K of transfer, water to solvent ([1]; Cyclohexane, 25 C): 3.27 log10 K; log K of transfer, water to solvent ([1]; Ethanol, 25 C): 3.14 log10 K; log K of transfer, gas to solvent ([2]; 1,2-Dichloroethane, 25 C): 4.37 log10 K; log K of transfer, gas to solvent ([2]; 2-Methylpropan-1-ol, 25 C): 3.62 log10 K; log K of transfer, gas to solvent ([2]; Cyclohexane, 25 C): 3.86 log10 K; log K of transfer, gas to solvent ([2]; Ethanol, 25 C): 3.73 log10 K |
| CCCC(C)=O | 0.94 | 0.175 | 0.61 | 3.52 | 2.75 | 3.19 | 2.58 | 0.84 | 0.999 | 3.58 | – | – | – | – | log K of transfer, water to solvent ([1]; Benzene, 25 C): 1.19 log10 K; log K of transfer, water to solvent ([1]; Chlorobenzene, 25 C): 1.29 log10 K; log K of transfer, water to solvent ([1]; Cyclohexane, 25 C): 0.4 log10 K; log K of transfer, water to solvent ([1]; Toluene, 25 C): 1.1 log10 K; log K of transfer, gas to solvent ([2]; Benzene, 25 C): 3.77 log10 K; log K of transfer, gas to solvent ([2]; Chlorobenzene, 25 C): 3.87 log10 K; log K of transfer, gas to solvent ([2]; Cyclohexane, 25 C): 2.98 log10 K; log K of transfer, gas to solvent ([2]; Toluene, 25 C): 3.68 log10 K |
| C1CC1 | – | 1.86 | – | – | 1.31 | – | -0.55 | 1.72 | – | – | 2 | 1.71 | 1.45 | 1.16 | log K of transfer, water to solvent ([1]; Butan-1-ol, 25 C): 1.81 log10 K; log K of transfer, water to solvent ([1]; Perfluoroalkane, 25 C): 1.44 log10 K; log K of transfer, water to solvent ([1]; Propan-1-ol, 25 C): 1.7 log10 K; log K of transfer, gas to solvent ([2]; Butan-1-ol, 25 C): 1.26 log10 K; log K of transfer, gas to solvent ([2]; Perfluoroalkane, 25 C): 0.888 log10 K; log K of transfer, gas to solvent ([2]; Propan-1-ol, 25 C): 1.15 log10 K |
| Cc1cc(C)cc(O)c1 | 0.82 | 0.256 | – | 5.42 | 4.85 | – | 4.6 | 2.35 | – | – | 0.362 | – | 4.96 | – | log K of transfer, water to solvent ([1]; Chlorobenzene, 25 C): 1.26 log10 K; log K of transfer, gas to solvent ([2]; Chlorobenzene, 25 C): 5.86 log10 K |
| CCCc1ccccc1 | – | 3.84 | 3.7 | – | 4.23 | 4.09 | 0.39 | 3.7 | 3.52 | 3.91 | 3.68 | 3.54 | 4.07 | 3.93 | log K of transfer, water to solvent ([1]; Tetrahydrofuran, 25 C): 4.48 log10 K; log K of transfer, gas to solvent ([2]; Tetrahydrofuran, 25 C): 4.87 log10 K |
| CC=C(C)C | 3.34 | 3.19 | – | 2.38 | 2.23 | – | -0.96 | 2.67 | – | – | – | – | – | – | log K of transfer, water to solvent ([1]; 2-Methylpropan-2-ol, 25 C): 3.32 log10 K; log K of transfer, water to solvent ([1]; Cyclohexanone, 25 C): 3.22 log10 K; log K of transfer, gas to solvent ([2]; 2-Methylpropan-2-ol, 25 C): 2.36 log10 K; log K of transfer, gas to solvent ([2]; Cyclohexanone, 25 C): 2.26 log10 K |
| C1CCCC1 | – | 3.36 | – | – | 2.48 | – | -0.88 | 3 | 2.8 | 1.92 | 3.59 | 3 | 2.71 | 2.12 | log K of transfer, water to solvent ([1]; Ethanol, 25 C): 2.92 log10 K; log K of transfer, water to solvent ([1]; Heptan-1-ol, 25 C): 3.15 log10 K; log K of transfer, water to solvent ([1]; Propan-1-ol, 25 C): 3 log10 K; log K of transfer, gas to solvent ([2]; Ethanol, 25 C): 2.04 log10 K; log K of transfer, gas to solvent ([2]; Heptan-1-ol, 25 C): 2.27 log10 K; log K of transfer, gas to solvent ([2]; Propan-1-ol, 25 C): 2.12 log10 K |
